Experimental data reported in US20070021391A1, “Preventive/remedy for urinary disturbance” (priority 2003, published 2007).
Read-outs that look alike come from different tables or passages of the source.

Legend:
[1] = system: butyrylcholine esterase/acetylcholine esterase; settings: Literature 7; species not given; cited from earlier work
[2] = target: Butyrylcholine esterase (Equus caballus, UniProt P81908); settings: read-out: Butyrylcholine esterase inhibitory activity (IC50); cited from earlier work
Sequence of Butyrylcholine esterase (Equus caballus, UniProt P81908) (P81908 whole entry): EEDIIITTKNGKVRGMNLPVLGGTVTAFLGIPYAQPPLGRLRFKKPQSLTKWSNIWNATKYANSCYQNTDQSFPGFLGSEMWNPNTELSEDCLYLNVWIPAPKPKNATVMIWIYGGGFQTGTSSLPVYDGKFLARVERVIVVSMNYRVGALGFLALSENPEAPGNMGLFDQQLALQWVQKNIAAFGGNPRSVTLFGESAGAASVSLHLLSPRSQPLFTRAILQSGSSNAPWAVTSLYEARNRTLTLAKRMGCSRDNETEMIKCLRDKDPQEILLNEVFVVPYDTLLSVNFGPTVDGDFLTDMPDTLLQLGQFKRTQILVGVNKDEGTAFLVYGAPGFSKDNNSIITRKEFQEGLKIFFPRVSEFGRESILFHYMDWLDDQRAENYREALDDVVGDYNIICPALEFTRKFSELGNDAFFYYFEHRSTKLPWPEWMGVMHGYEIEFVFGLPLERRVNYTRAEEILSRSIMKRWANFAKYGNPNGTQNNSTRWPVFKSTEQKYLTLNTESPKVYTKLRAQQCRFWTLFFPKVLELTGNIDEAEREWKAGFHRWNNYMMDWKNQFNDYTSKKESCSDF

[3] = system: Hartley male guinea pig, urethane anesthesia; test: Pressure/flow study using guinea pig (Example 3); assay type: in vivo; settings: for Amount of urination, proportion for value before administration (%) / At maximum urine flow rate Inner pressure of bladder, proportion for value before administration (%) / Maximum urine flow rate, proportion for value before administration (%): i.v.; for Bladder compliance, proportion for value before administration (%) / Bladder volume, proportion for value before administration (%): iv; for change of the parameters at urination and at collection of urine (text): intravenous administration
Protocol: A Hartley male guinea pig of 5 weeks old (Japan SLC) was used. After urethane anesthesia, the medial incision of the lower abdomen was carried out, and the bladder was exposed. Two injection needles (20G) with which a polyethylene tube (PE-100) was linked were inserted in the bladder, and one needle was used for injection of saline and another needle was used for measurement of the inner pressure of the bladder. The injection of saline was continuously carried out at a rate of 18 mL/h using a syringe pump (SP-100S, JMS, and Hiroshima), the injection was stopped after intermittent urination was confirmed 3 times at minimum, and the saline in the bladder was removed by suction. Injection was started again, and the injection was stopped when the raise of the inner pressure of the bladder just before urination was confirmed. The amount of urine excreted was measured by an electronic weighing machine (HX-400, A&D, and Tokyo) and the inner pressure of the bladder was measured using a pressure transducer (AP641G, NIPPON KODEN Corporation). The analogue data of the weight of urine and the inner pressure of the bladder were inputted in a multi-channel data analyzer (MP-100A-CE, Biopac systems), and analyzed by a proprietary software (Acqknowledge, Biopac systems). The sampling interval of data was 0.1 second and a low pass filter was applied to the data of discharge amount and urine flow rate at 0.5 Hz in order to remove noise. A delay time of 0.1 second in weighing the urine was rectified, and the urine flow rate was determined by differentiating the value of discharge amount. After a value before twice administration of the drug was measured, the drugs (the compound A, distigmine, neostigigmine and bethanechol) were intravenously administrated. Saline in the bladder was extracted after 10 minutes of administration of the compound A, bethanechol and neostigigmine and after 30 minutes of administration of distigmine, and injection was started again to measure data. The drugs were dissolved with distilled water so that administration volume was 0.5 mL/kg. Parameters (bladder volume, the amount of urination, the maximum urine flow rate, the inner pressure of the bladder at the maximum urine flow, bladder compliance) below were measured. The bladder compliance was calculated from intersection point (the threshold of bladder volume, threshold pressure) which was obtained by determining regression line in the respective curves of the inner pressure of the bladder at collection of urine and urinary reflex. The change rate before and after administration of the drug was calculated for the respective parameters and the calibration of significant difference was carried out by a solvent administration group and Dunnett calibration (Table 6 and Table 7).

[4] = target: T1, butyrylcholine esterase of human serum origin (Homo sapiens, UniProt P06276); test: biochemical; assay type: biochemical
T1 construct: butyrylcholine esterase of human serum origin; purchased Biogenesis, Poole, UK; host or cells: human serum
T1 sequence (P06276 29-602): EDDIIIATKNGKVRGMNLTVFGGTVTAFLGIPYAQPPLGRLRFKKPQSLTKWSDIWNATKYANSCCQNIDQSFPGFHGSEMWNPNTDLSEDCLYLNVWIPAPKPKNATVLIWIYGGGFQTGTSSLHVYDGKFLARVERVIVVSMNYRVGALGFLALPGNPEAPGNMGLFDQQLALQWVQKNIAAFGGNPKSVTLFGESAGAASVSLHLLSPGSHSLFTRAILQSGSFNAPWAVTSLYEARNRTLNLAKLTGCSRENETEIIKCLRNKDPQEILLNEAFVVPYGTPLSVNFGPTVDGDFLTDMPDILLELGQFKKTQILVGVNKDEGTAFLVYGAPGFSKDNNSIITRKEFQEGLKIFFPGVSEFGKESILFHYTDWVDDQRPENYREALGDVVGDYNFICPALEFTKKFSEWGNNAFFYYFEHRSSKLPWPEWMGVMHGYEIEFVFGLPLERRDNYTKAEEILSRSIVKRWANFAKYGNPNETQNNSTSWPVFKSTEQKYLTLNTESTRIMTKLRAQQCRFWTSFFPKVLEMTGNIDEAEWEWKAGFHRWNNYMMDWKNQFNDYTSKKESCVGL
Protocol: (§1) The AChE inhibitory activity and the BuChE inhibitory activity were determined by a thiocholine method (Ellman method) using acetylcholine esterase of human erythrocyte origin (Sigma, St. Louis, Mo., USA) and butyrylcholine esterase of human serum origin (Biogenesis, Poole, UK). Acetylcholine esterase or butyrylcholine esterase was diluted to a concentration of 0.2 IU/mL with 80 mM tris-HCL buffers (pH=7.4) containing 0.3% bovine serum albumin (BSA) to prepare an enzyme preparation. […] The stock solution was diluted at 3-fold common ratio with 10% DMSO and 80 mM tris-HCl buffers containing 0.3% BSA. On a 96 wells microplate, 20 μL of the drug solution with a given concentration, 30 μL of 80 mM tris-HCl buffers containing 0.3% BSA and 50 μL of the enzyme preparation were distributed, and incubated at room temperature for 1 hour after shaking for 10 seconds. […] For the respective drugs, the test was repeated twice. The % of control of the increase in light absorption was calculated at each concentration with respect to the respective drugs. % of control=increase in light absorption of drug/increase in light absorption of control×100

[5] = system: bladder muscle; parameters: species or system guinea pig; settings: for Tension (%): 30 minutes, change of basic tension, 100 mM KCl contraction = 100%
[6] = target: T2, acetylcholine esterase of human erythrocyte origin (Homo sapiens, UniProt P22303); test: biochemical; assay type: biochemical
T2 construct: acetylcholine esterase of human erythrocyte origin; purchased Sigma, St. Louis, Mo., USA; host or cells: human erythrocytes
T2 sequence (P22303 32-617 isoform P22303-2 limits assumed): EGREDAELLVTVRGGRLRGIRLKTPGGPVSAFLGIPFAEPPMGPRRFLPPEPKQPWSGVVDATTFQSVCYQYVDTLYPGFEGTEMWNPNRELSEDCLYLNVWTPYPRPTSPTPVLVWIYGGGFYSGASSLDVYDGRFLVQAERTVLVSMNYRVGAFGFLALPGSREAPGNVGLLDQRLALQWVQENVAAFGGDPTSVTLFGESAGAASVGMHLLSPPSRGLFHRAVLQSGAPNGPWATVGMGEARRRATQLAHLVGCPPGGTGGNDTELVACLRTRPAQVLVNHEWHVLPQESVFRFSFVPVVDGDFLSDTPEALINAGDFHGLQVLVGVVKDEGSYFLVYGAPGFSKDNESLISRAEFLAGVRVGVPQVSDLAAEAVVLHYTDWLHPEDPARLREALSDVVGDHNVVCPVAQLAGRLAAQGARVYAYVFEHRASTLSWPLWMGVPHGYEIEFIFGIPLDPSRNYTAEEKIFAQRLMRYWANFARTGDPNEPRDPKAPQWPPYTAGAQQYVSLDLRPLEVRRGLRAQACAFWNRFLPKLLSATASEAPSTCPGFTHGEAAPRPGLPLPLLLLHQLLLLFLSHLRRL
Protocol: as §1

[7] = target: Acetylcholine esterase (Electrophorus electricus, UniProt O42275); settings: Electric eel; Literature 5 (tacrine line prints 6); read-out: Acetylcholine esterase inhibitory activity (IC50); cited from earlier work
Sequence of Acetylcholine esterase (Electrophorus electricus, UniProt O42275) (O42275 24-633): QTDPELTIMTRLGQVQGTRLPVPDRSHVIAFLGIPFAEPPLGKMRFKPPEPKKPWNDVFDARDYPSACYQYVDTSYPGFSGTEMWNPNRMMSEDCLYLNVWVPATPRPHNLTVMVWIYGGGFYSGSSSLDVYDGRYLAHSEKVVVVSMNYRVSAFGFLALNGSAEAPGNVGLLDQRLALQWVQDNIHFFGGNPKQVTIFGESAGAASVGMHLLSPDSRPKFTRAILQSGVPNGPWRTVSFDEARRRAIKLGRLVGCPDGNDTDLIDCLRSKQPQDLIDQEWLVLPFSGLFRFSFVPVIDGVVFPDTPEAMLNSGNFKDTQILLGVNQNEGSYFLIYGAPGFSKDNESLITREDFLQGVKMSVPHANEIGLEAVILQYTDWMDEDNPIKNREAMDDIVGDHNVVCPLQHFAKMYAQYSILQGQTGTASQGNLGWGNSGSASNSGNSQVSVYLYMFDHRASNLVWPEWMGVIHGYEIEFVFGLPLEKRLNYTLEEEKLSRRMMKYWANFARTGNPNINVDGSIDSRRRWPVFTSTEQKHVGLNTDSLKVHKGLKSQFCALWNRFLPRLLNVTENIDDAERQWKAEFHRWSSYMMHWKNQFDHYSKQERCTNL

[8] = target: T3, Acetylcholine esterase (Rattus norvegicus, UniProt P37136); settings: Literature 6, read-out: Acetylcholine esterase inhibitory activity (IC50); cited from earlier work
T3 sequence (P37136 32-614): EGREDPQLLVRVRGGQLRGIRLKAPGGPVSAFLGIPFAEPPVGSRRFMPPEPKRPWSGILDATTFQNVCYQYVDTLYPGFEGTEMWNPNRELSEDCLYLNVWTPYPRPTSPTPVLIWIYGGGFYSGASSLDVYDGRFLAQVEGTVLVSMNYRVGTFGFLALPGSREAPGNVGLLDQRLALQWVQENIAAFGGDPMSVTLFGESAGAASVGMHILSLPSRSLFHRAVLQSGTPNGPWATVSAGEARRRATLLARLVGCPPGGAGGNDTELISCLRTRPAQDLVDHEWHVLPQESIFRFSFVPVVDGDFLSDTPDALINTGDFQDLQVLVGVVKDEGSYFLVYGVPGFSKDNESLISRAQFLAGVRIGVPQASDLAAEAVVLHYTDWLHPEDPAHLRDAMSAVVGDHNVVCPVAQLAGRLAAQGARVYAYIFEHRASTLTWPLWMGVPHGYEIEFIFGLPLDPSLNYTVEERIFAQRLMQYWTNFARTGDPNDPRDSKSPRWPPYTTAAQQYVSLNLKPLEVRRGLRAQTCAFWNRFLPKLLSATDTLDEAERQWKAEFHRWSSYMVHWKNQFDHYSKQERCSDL

[9] = target: Butyrylcholine esterase (Rattus norvegicus, UniProt Q9JKC1); settings: Literature 6, read-out: Butyrylcholine esterase inhibitory activity (IC50); cited from earlier work
Sequence of Butyrylcholine esterase (Rattus norvegicus, UniProt Q9JKC1) (Q9JKC1 24-597): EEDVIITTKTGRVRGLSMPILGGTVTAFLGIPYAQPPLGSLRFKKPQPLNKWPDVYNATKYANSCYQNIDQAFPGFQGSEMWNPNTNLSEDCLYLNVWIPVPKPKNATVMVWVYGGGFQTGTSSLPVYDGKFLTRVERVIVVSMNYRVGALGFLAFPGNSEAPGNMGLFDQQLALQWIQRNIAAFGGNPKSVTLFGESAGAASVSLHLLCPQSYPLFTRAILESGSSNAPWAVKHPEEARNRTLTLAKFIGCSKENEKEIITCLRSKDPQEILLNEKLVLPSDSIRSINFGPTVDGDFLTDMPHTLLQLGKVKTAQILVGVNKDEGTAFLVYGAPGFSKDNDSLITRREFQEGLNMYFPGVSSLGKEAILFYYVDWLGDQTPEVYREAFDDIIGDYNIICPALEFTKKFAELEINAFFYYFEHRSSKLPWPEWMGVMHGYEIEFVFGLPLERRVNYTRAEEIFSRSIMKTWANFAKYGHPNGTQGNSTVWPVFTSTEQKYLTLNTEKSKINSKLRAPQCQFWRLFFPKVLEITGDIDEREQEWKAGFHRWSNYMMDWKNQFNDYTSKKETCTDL

CCc1ccccc1NC(=O)Oc1ccc2c(c1)[C@]1(C)CCN(C)O[C@@H]1N2C [Ganstigmine]
Selectivity (butyrylcholine esterase/acetylcholine esterase) [1]: 115

CN(C)C(=O)Oc1cccc([N+](C)(C)C)c1 [Neostigigmine]
IC50 [2]: 0.1 µM
Amount of urination, proportion for value before administration (%) ([3]; 0.01 mg/kg): 107.7 ± 17.2%
At maximum urine flow rate Inner pressure of bladder, proportion for value before administration (%) ([3]; 0.01 mg/kg): 112.3 ± 4.2%
Maximum urine flow rate, proportion for value before administration (%) ([3]; 0.01 mg/kg): 79.4 ± 11.5%
Bladder compliance, proportion for value before administration (%) ([3]; 0.01 mg/kg): 61.5 ± 8.6%
Bladder volume, proportion for value before administration (%) ([3]; 0.01 mg/kg): 81.1 ± 8.9%
Amount of urination, proportion for value before administration (%) ([3]; 0.03 mg/kg): 91.6 ± 14.9%
At maximum urine flow rate Inner pressure of bladder, proportion for value before administration (%) ([3]; 0.03 mg/kg): 128.5 ± 10.9 %
Maximum urine flow rate, proportion for value before administration (%) ([3]; 0.03 mg/kg): 67.2 ± 9.9%
Bladder compliance, proportion for value before administration (%) ([3]; 0.03 mg/kg): 59.4 ± 9.1 %
Bladder volume, proportion for value before administration (%) ([3]; 0.03 mg/kg): 86.4 ± 7.5%
Amount of urination, proportion for value before administration (%) ([3]; 0.1 mg/kg): 58.3 ± 16.4%
At maximum urine flow rate Inner pressure of bladder, proportion for value before administration (%) ([3]; 0.1 mg/kg): 130.9 ± 8.7 %
Maximum urine flow rate, proportion for value before administration (%) ([3]; 0.1 mg/kg): 54.0 ± 13.8%
Bladder compliance, proportion for value before administration (%) ([3]; 0.1 mg/kg): 31.7 ± 7.1 %
Bladder volume, proportion for value before administration (%) ([3]; 0.1 mg/kg): 66.5 ± 14.7%
change of the parameters at urination and at collection of urine (text) [3]: lowered the bladder compliance significantly
change of the parameters at urination and at collection of urine (text) ([3]; listed as neostigigmine): did not show clear action for the amount of urination and the maximum urine flow rate and increased urination pressure significantly
IC50 [4]: 0.6 µM
inhibitory activity for human butyrylcholine esterase [4]: inhibitory activity was confirmed
Tension (%) ([5]; 0.01 μM): −0.95 ± 0.37%
Tension (%) ([5]; 0.03 μM): −0.31 ± 0.25%
Tension (%) ([5]; 0.1 μM): 1.52 ± 0.37 %
Tension (%) ([5]; 0.3 μM): 6.87 ± 1.25 %
Tension (%) ([5]; 1 μM): 17.78 ± 2.25 %
effect on basic tension ([5]; drug alone): increased basic tension significantly and concentration-dependently
inhibition of the activity of human acetylcholine esterase [6]: inhibited the activity of human acetylcholine esterase
IC50 [7]: 5 µM

O=C(CCC1CCN(Cc2ccccc2)CC1)c1ccc2c(c1)NCCCC2 [TAK-147]
IC50 [8]: 0.051 µM
IC50 [9]: 24 µM
